Each block holds one compound with its values, some of them ahead of it.
Experiments:
[1] = test system: Schistosoma japonicum; test: Antiparasitic activity against Schistosoma japonicum cercariae isolate Anhui infected in ICR mouse assessed as overall reduction rate at 100 to 400 mg/kg, po administered as single dose for 5 consecutive days measured on day 21 post dose by scanning electron microscopic method; assay type: functional; set-up: scale not given: the % may be the effect or the level left
[2] = Cytotoxicity against human HeLa cells assessed as cell survival at 40 uM after 24 hrs by MTT assay relative to control; assay type: cell-based; settings: read-out: Survival
[3] = test system: Schistosoma japonicum; test: Antiparasitic activity against Schistosoma japonicum derived from infected C57BL/6 mouse assessed as parasite killing at 10 uM incubated for 30 to 60 mins measured up to 72 hrs by inverted microscopic method relative to control; assay type: functional
[4] = test system: Schistosoma mansoni; test: Antiparasitic activity against Schistosoma mansoni in patient assessed as reduction in eggs per gram of rectal mucosa at 10 mg/kg/day bid measured up to day 180 post dose relative to control; assay type: functional; set-up: scale not given: the % may be the effect or the level left
[5] = Drug excretion in human urine at 15 mg/kg, po; assay type: ADME, organism-based; settings: read-out: Drug excretion
[6] = Elimination half life in human at 15 mg/kg, po; assay type: ADME, organism-based; settings: in vivo, read-out: beta t1/2
[7] = test system: Schistosoma mansoni; test: Antiparasitic activity against Schistosoma mansoni in patient assessed as cure rate by measuring reduction in eggs in stool at 10 mg/kg/day bid measured up to day 180 post dose relative to control; assay type: functional; set-up: scale not given: the % may be the effect or the level left
[8] = Cmax in human at 15 mg/kg, po; assay type: ADME, organism-based; set-up: dose 15 mg/kg, route oral; settings: in vivo
[9] = test system: Plasma; test: Drug level in human plasma after 1 to 2 hrs; assay type: ADME, cell-free
[10] = Protein binding in plasma (unknown origin); assay type: ADME, cell-free
[11] = Antiparasitic activity against Schistosoma in intestinal schistosomiasis patient assessed as cure rate at 40 mg/kg; assay type: functional
[12] = Drug excretion in human urine up to 4 days; assay type: ADME; settings: read-out: Drug excretion
[13] = Fraction absorbed in po dosed rat; assay type: ADME, organism-based; settings: in vivo, read-out: Fabs
[14] = Fraction absorbed in po dosed human; assay type: ADME, organism-based; settings: in vivo, read-out: Fabs
[15] = test system: Schistosoma mansoni; test: In vivo antiparasitic activity against Schistosoma mansoni assessed as cure rate at 40 to 60 mg/kg relative to control; assay type: functional
[16] = Half life in human; assay type: ADME
[17] = test system: Schistosoma mansoni; test: Antiparasitic activity against Schistosoma mansoni in patient assessed as cure rate by measuring reduction in eggs in stool at 60 mg/kg/day for 3 consecutive days measured up to day 180 post dose relative to control; assay type: functional; set-up: scale not given: the % may be the effect or the level left
[18] = Fraction absorbed in po dosed dog; assay type: ADME, organism-based, Canis lupus familiaris; settings: in vivo, read-out: Fabs
[19] = test system: Schistosoma mansoni; test: Antiparasitic activity against Schistosoma mansoni in patient assessed as reduction in eggs per gram of rectal mucosa at 60 mg/kg/day for 3 consecutive days measured up to day 180 post dose relative to control; assay type: functional; set-up: scale not given: the % may be the effect or the level left
[20] = Apparent permeability in human Caco2 cells; assay type: ADME, cell-based; settings: Caco-2
[21] = test system: Schistosoma mansoni; test: In vivo antiparasitic activity against Schistosoma mansoni assessed as reduction in egg count in […] at 40 to 60 mg/kg relative to control; assay type: functional; set-up: scale not given: the % may be the effect or the level left
[22] = Tmax in human; assay type: ADME
[23] = Cmax in human after 1 to 2 hrs; assay type: ADME
[24] = Protein binding in plasma (unknown origin) relative to control; assay type: ADME, cell-free; settings: read-out: PPB
[25] = molecular target: albumin (Homo sapiens, UniProt P02768); test: Binding affinity to albumin (unknown origin); assay type: ADME; settings: read-out: PB
[26] = Fraction absorbed in po dosed monkey; assay type: ADME, organism-based, Macaca mulatta; settings: rhesus monkey, in vivo, read-out: Fabs

albumin, sequence (P02768 whole entry): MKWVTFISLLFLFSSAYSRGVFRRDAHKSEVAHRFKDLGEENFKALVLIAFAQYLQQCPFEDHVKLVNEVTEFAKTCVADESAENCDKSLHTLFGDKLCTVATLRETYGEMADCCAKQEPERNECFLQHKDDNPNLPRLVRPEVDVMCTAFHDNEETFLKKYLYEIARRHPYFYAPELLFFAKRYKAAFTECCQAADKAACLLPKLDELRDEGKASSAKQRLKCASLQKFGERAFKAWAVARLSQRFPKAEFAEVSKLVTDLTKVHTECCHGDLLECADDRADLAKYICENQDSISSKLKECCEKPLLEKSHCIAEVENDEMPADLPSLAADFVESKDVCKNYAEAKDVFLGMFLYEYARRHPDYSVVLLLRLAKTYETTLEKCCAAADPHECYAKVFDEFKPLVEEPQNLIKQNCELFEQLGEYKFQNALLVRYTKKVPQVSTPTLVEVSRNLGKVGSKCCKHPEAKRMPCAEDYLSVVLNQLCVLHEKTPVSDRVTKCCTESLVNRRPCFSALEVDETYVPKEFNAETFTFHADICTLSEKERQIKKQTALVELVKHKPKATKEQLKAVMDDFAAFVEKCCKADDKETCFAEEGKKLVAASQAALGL

SMILES: C[C@H]1[C@@H](OC(=O)CCC(=O)Oc2ccc3c(c2)C2CN(C(=O)C4CCCCC4)CC(=O)N2CC3)O[C@@H]2O[C@@]3(C)CC[C@H]4[C@H](C)CC[C@@H]1[C@@]24OO3 (stereo partly drawn)
Activity [1]: 60%

SMILES: O=C(C1CCCCC1)N1CC(=O)N2CCc3ccc([N+](=O)[O-])cc3C2C1 (stereo not drawn)
viability at 24 h, 40 µM [2]: > 85%

SMILES: Nc1ccc2c(c1)C1CN(C(=O)C3CCCCC3)CC(=O)N1CC2 (stereo not drawn)
viability at 24 h, 40 µM [2]: > 85%

SMILES: O=C(CCCCCN1C(=O)c2cccc3c(C4CCOCC4)ccc(c23)C1=O)Nc1ccc2c(c1)C1CN(C(=O)C3CCCCC3)CC(=O)N1CC2 (stereo not drawn)
viability at 24 h, 40 µM [2]: > 85%

SMILES: O=C(CCl)N1CC(=O)N2CCc3sccc3C2C1 (stereo not drawn)
Activity [3]: 100%

dose excreted [5]: 0.4 to 1.9%
half-life [6]: 1.5 to 2 h
Cmax [8]: 1000 to 4000 ng/mL
SMILES: CC(C)NCC1CCc2cc(CO)c([N+](=O)[O-])cc2N1 (stereo not drawn) [OXAMNIQUINE]
Activity [4]: 42.4%
Activity [7]: 90.3%

Drug uptake [9]: 5 to 7 %ID
PPB [10]: 0.19 to 3 mg/mL
dose excreted at 96 h [12]: 80%
Fa [13]: 75 to 100%
Fa [14]: 75 to 100%
half-life [16]: 1.5 h
Fa [18]: 75 to 100%
Papp [20]: 44 ×10⁻⁶ cm/s
Tmax [22]: 3 to 4 h
Cmax [23]: 1000 ng/mL
fraction unbound [24]: 0.195 to 0.21
fraction unbound [25]: 0.19 to 0.22
Fa [26]: 75 to 100%
SMILES: O=C(C1CCCCC1)N1CC(=O)N2CCc3ccccc3C2C1 (stereo not drawn) [PRAZIQUANTEL]
Activity [11]: 18 - 39%
Activity [15]: 60 - 90%
Activity [17]: 100%
Activity [19]: 96.1%
Activity [21]: 90 - 95%

Source: ChEMBL document CHEMBL4033679, “Medicinal chemistry of antischistosomal drugs: Praziquantel and oxamniquine” (Bioorg Med Chem, 2017)
